Results on 14 compounds are retold here after ChEMBL document CHEMBL1201862, “PubChem BioAssay data set” (2004).

Holding throughout (assay): NCI-60 cell line screen, 48 h
For test [1], the system named is SNB-19.
The subject of test [2] is UACC-62.
The subject of test [3] is RPMI-8226.
The subject of test [4] is SK-OV-3.
The test system of test [5] is ACHN.
Test [6] has as its system HCT-15.
Test [7] relates to COLO 205.
In test [8] the test system is UO-31.
Test [9] relates to KM12.
Test [10] deals with NCI-H460.
Test [11] deals with OVCAR-4.
For test [12], the system named is SNB-75.
In test [13] the test system is SF-268.
Test [14] relates to M14.
Test [15] concerns A498.
Test [16] has as its system HL-60.

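Where inhibition never reached the appropriate level, the endpoint shown equals the highest concentration tested. Otherwise, values were interpolated linearly from a five-concentration, 48-hour dose response in 96-well plates. Here, GI50 denotes the concentration required for 50% inhibition of growth.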 The source made the active and inactive calls. No stated cut-off is given here; in the data, active = GI50 up to about 1.1 µM and inactive = higher.

For the compound `COc1ccc(C(=O)/C(=N/Nc2ccccc2)c2ccc(OC)cc2)cc1`, the GI50 is > 100 µM (inactive) in test [1]; 13.3 µM (inactive) in [2]; 51.4 µM (inactive) in test [3]; 61.2 µM (inactive) in test [4]; 33.9 µM (inactive) in test [5]; 8.55 µM in [6]. Further, the GI50 in [7] was > 100 µM (inactive); in test [8], > 100 µM (inactive); in test [9] it was 10.6 µM (inactive); in test [10], > 100 µM (inactive); in test [11], > 100 µM (inactive); in test [12], 27 µM (inactive).

For the compound `CCOCN1COCN(C)C1=O`, the GI50 in test [1], in test [13], in [14], in [2], in [15] and in test [3] was > 100 µM (inactive) in each case. Further, the GI50 is > 100 µM (inactive) in test [4]; > 100 µM (inactive) in test [5]; over 100 µM in test [6]; > 100 µM (inactive) in test [7]; > 100 µM (inactive) in test [8]; > 100 µM (inactive) in [9]. For the same compound, the GI50 in [10], in [11] and in [12] was > 100 µM (inactive) throughout.

Turning to `CC1CCC[P+](Cc2ccccc2)(c2ccccc2)CC1` (stereo unspecified), the GI50 in test [1] was 46.5 µM (inactive); in test [13], 89.1 µM (inactive); in [14] it was 35.9 µM (inactive); in test [2], 25 µM (inactive); in [15] it was > 100 µM (inactive); in [16] it was 14.8 µM (inactive). The GI50 in [3] is 7.23 µM (inactive); in test [4], > 100 µM (inactive); in test [5] it was > 100 µM (inactive); in test [6], over 100 µM; in test [7] it was 40.4 µM (inactive); in [8], > 100 µM (inactive). Further, the GI50 in test [10] is 79.6 µM (inactive); in test [11], 15.8 µM (inactive); in test [12], 40.3 µM (inactive).

In the case of `COC(=O)/C(=N\NC(=O)c1ccccc1O)C(C#N)c1ccccc1` (stereo unspecified), the GI50 was 23.2 µM (inactive) in test [1]; 23.5 µM (inactive) in test [13]; 31.4 µM (inactive) in test [14]; 12.1 µM (inactive) in test [2]; > 25.9 µM (inactive) in test [15]; 16.3 µM (inactive) in test [16]. Besides, the GI50 in [3] was 20.2 µM (inactive); in [4], > 45.2 µM (inactive); in [5] it was 19.7 µM (inactive); in test [6] it was 17.4 µM; in test [7], > 50 µM (inactive); in test [8] it was 12.9 µM (inactive). Besides, the GI50 in test [9] was 24.1 µM (inactive); in test [10] it was 18.9 µM (inactive); in test [11], > 43.2 µM (inactive); in [12], 22.5 µM (inactive).

Consider `COc1cc(OC)c(OC)cc1/C=N/NC(=O)N/N=C/c1cc(OC)c(OC)cc1OC`, for which the GI50 in test [1], in test [13], in test [14], in [2], in test [15] and in test [3] was > 100 µM (inactive) throughout. In addition, the GI50 is > 100 µM (inactive) in test [4]; > 100 µM (inactive) in test [5]; over 100 µM in [6]; > 100 µM (inactive) in test [7]; > 100 µM (inactive) in test [8]; > 100 µM (inactive) in test [9]. In addition, the GI50 in [10] is > 100 µM (inactive); in test [11] it was > 100 µM (inactive); in test [12], 15.8 µM (inactive).

For the compound `CCCN(CCCC(NC(C)=O)C(=O)NCc1ccccc1)C(=O)N(C)N=O` (stereo unspecified), the GI50 in test [13], in [14], in test [2], in [15], in test [3] and in test [4] was > 100 µM (inactive) throughout. The GI50 in test [5] was > 100 µM (inactive); in test [6], over 100 µM; in test [7] it was > 100 µM (inactive); in [9], > 100 µM (inactive); in [10], > 100 µM (inactive); in test [11], > 100 µM (inactive). Moreover, the GI50 in [12] was 41.3 µM (inactive).

Regarding `Cc1ccc(/C=C/C(=O)C(C)(C)CN2CCCCC2)cc1`, the GI50 in test [1] was 2.57 µM (inactive); in test [13] it was 15.7 µM (inactive); in test [14], 7.31 µM (inactive); in test [2], 11.1 µM (inactive); in test [15], 6.24 µM (inactive); in test [3], 3.49 µM (inactive). Besides, the GI50 in [4] was 11 µM (inactive); in test [5], 11.2 µM (inactive); in [6], 3.76 µM; in [7] it was 3.66 µM (inactive); in test [8], 10.3 µM (inactive); in test [9], 3.28 µM (inactive). Further, the GI50 in [10] was 8.28 µM (inactive); in test [11], 10.1 µM (inactive); in [12], 5.37 µM (inactive).

Regarding `C=CC/N=C1/N=C(CC(=O)OCC)CS1`, the GI50 in [1], in [13], in test [14], in test [2], in test [15] and in test [16] was > 100 µM (inactive) each time. The GI50 is > 100 µM (inactive) in [4]; > 100 µM (inactive) in test [5]; over 100 µM in [6]; > 100 µM (inactive) in [7]; > 100 µM (inactive) in test [8]; > 100 µM (inactive) in test [9]. Moreover, the GI50 in test [10], in test [11] and in test [12] was > 100 µM (inactive) throughout.

With `NNC(=O)N/N=C1\C(=O)N(c2nccs2)C(=O)C(=O)C1c1nc2ccccc2s1` (stereo unspecified), the GI50 in test [1], in [13], in [14], in [2], in test [3] and in [4] was > 100 µM (inactive) each time. Further, the GI50 in test [5] is > 100 µM (inactive); in test [6] it was over 100 µM; in [7] it was > 100 µM (inactive); in [8] it was > 100 µM (inactive); in test [9], > 100 µM (inactive); in [10], > 100 µM (inactive). The GI50 in [11] and in test [12] was > 100 µM (inactive) throughout.

Turning to `Cc1ccc(C)c(NC2=NC(=O)C(CC(=O)Nc3ccc(Cl)cc3Cl)S2)c1` (stereo unspecified), the GI50 in test [1] was 48.5 µM (inactive); in [13], 37.8 µM (inactive); in test [14], > 100 µM (inactive); in test [2], 28.9 µM (inactive); in test [15], 28.6 µM (inactive); in [16], > 100 µM (inactive). Further, the GI50 in [3] was > 100 µM (inactive); in test [4], > 100 µM (inactive); in [5] it was > 100 µM (inactive); in test [6], over 100 µM; in test [7], 88.7 µM (inactive); in test [8] it was > 100 µM (inactive). The GI50 in test [9] is 52.6 µM (inactive); in [10], > 100 µM (inactive); in [11], 49.2 µM (inactive); in test [12], 44.7 µM (inactive).

For `Cc1c(Cl)cccc1NC(=O)C(=O)C(C(=O)c1ccccc1-c1ccccc1)C1OC(=O)c2ccccc21` (stereo unspecified), the GI50 in test [13] was 19.7 µM (inactive); in [14] it was 17 µM (inactive); in test [2], 17.9 µM (inactive); in [16], 16.8 µM (inactive); in [3], 13.8 µM (inactive); in [4], 43 µM (inactive). Besides, the GI50 in test [7] is 20.2 µM (inactive); in [8], 20.4 µM (inactive); in test [9] it was 18.5 µM (inactive); in test [10] it was 25.5 µM (inactive); in test [12] it was 19.3 µM (inactive).

For the compound `Cn1c(=O)nc2n(-c3cc(Cl)ccc3Cl)c3ccccc3nc-2c1=O`, the GI50 is 4.67 µM (inactive) in [1]; 11.9 µM (inactive) in test [13]; 3.63 µM (inactive) in test [14]; 1.61 µM (inactive) in [2]; 18.6 µM (inactive) in test [15]; 4.71 µM (inactive) in test [3]. Further, the GI50 is 28 µM (inactive) in test [4]; 0.906 µM (active) in test [5]; 3.8 µM in [6]; 1.82 µM (inactive) in [7]; 13.6 µM (inactive) in test [8]; 5.58 µM (inactive) in [9]. The GI50 is 2.53 µM (inactive) in test [10], 4.33 µM (inactive) in test [11] and 11.2 µM (inactive) in test [12].

As to `COc1ccc(/C=C/c2cc(OC)c(OC)c(OC)c2)cc1`, the GI50 was 13.6 µM (inactive) in test [1]; 15.1 µM (inactive) in [13]; 42 µM (inactive) in [14]; 3.25 µM (inactive) in test [2]; 3.4 µM (inactive) in [15]; 2.75 µM (inactive) in test [16]. Also, the GI50 is 1.09 µM (active) in [3]; 8.59 µM (inactive) in [4]; 5.98 µM (inactive) in [5]; 2.57 µM in [6]; 3.14 µM (inactive) in [7]; 4.68 µM (inactive) in test [8]. Further, the GI50 in test [9] is 3.3 µM (inactive); in [10], 3.9 µM (inactive); in test [11], 41.5 µM (inactive); in test [12] it was 3.43 µM (inactive).

For `C[C@@]12CCCc3coc(c31)C(=O)c1cc3c(cc12)C(=O)C=CC3=O` [XESTOQUINONE], the GI50 in test [1] was 43.8 µM (inactive); in test [14] it was 16.1 µM (inactive); in test [2] it was 17.4 µM (inactive); in test [15], 56.2 µM (inactive); in test [16], 2.38 µM (inactive); in test [3] it was 5.98 µM (inactive). For the same compound, the GI50 in [5] was 12.8 µM (inactive); in [6], 17.7 µM; in test [8], 16.2 µM (inactive); in test [9] it was 21.7 µM (inactive); in [10], 21.8 µM (inactive); in test [11], 15.5 µM (inactive). Also, the GI50 in test [12] was 19.3 µM (inactive).
